Peptide text beside a SMILES is read from it.
Legend:
[1] = Peptide stability in human serum; details: human serum (50% v/v) from a healthy donor
[2] = biological target: His-tagged Spike RBD protein (SARS-CoV-2) (UniProt P0DTC2); assay: BLI

CC(C)C[C@H](NC(=O)[C@@H](N)[C@@H](C)O)C(=O)N[C@@H](Cc1c[nH]cn1)C(N)=O [TLH] (H-Thr-Leu-His-NH2)
half-life at 1 mM [1]: 4.36 h

CC[C@H](C)[C@H](NC(=O)[C@H](Cc1ccccc1)NC(=O)[C@@H](N)C(C)C)C(N)=O [VFI] (H-Val-Phe-Ile-NH2)
half-life at 1 mM [1]: 12.4 h

tripeptide TLH
Kd [2]: 22.8 µM

tripeptide VFI
Kd [2]: 28.4 µM
